Assay results taken from the supplement of paper PMC10307832.

Columns and labels:
Experiment in all cases: relative viability (nuclei count vs DMSO), 5 days (fraction); higher = more cells survive
[1] = compound: Cn1cc(-c2cnn3c(N)c(Br)c([C@@H]4CCCNC4)nc23)cn1
Procedure, shortened: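 Following overnight incubation at 37 °C, lung cancer cell lines in 1536-well plates were pinned with five library-drug doses (not always all listed) in √10 steps on vehicle-anchored plates. The cells then spent 5 days without medium change before a combined fix, permeabilisation and Hoechst stain, 4× imaging and MetaXpress nuclear counts. Viability is the treated-to-vehicle ratio of nuclei, taken as the median across plates. Only plates with control CV below 25% and at least one doubling passed.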

[2] = compound: Cn1cc(-c2cnn3c(N)c(Br)c([C@@H]4CCCNC4)nc23)cn1 + CC(C)C[C@H](NC(=O)[C@H](Cc1ccccc1)NC(=O)c1cnccn1)B(O)O [Bortezomib] (partner 0.002 µM)
Procedure, shortened: (§1)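 Lung cancer cell lines in 1536-well plates got either a single drug or a fixed anchor-drug dose together with five library-drug doses (not always all listed) in √10 steps, by pin tool, on the day after seeding. Nuclei were counted after 5 days, and relative viability is the treated-to-vehicle ratio of nuclei counts. Values are medians of duplicate plates.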

[3] = compound: Cn1cc(-c2cnn3c(N)c(Br)c([C@@H]4CCCNC4)nc23)cn1 + CC1(C)CCC(c2ccc(Cl)cc2)=C(CN2CCN(c3ccc(C(=O)NS(=O)(=O)c4ccc(N[C@H](CCN5CCOCC5)CSc5ccccc5)c(S(=O)(=O)C(F)(F)F)c4)cc3)CC2)C1 [Navitoclax] (partner 0.5 µM)
Procedure, shortened: as §1

[4] = compound: Cn1cc(-c2cnn3c(N)c(Br)c([C@@H]4CCCNC4)nc23)cn1 + COc1cc2c(Oc3ccc(NC(=O)C4(C(=O)Nc5ccc(F)cc5)CC4)cc3F)ccnc2cc1OCCCN1CCOCC1 [Foretinib] (partner 0.25 µM)
Procedure, shortened: as §1

[5] = compound: Cn1cc(-c2cnn3c(N)c(Br)c([C@@H]4CCCNC4)nc23)cn1 + CS(=O)(=O)CCNCc1ccc(-c2ccc3ncnc(Nc4ccc(OCc5cccc(F)c5)c(Cl)c4)c3c2)o1 [Lapatinib] (partner 2 µM)
Procedure, shortened: as §1

[6] = compound: Cn1cc(-c2cnn3c(N)c(Br)c([C@@H]4CCCNC4)nc23)cn1 + CS(=O)(=O)N1CCN(Cc2cc3nc(-c4cccc5[nH]ncc45)nc(N4CCOCC4)c3s2)CC1 [Pictilisib] (partner 1 µM)
Procedure, shortened: as §1

[7] = compound: Cn1cc(-c2cnn3c(N)c(Br)c([C@@H]4CCCNC4)nc23)cn1 + C[C@@H](Oc1cc(-c2cnn(C3CCNCC3)c2)cnc1N)c1c(Cl)ccc(F)c1Cl [Crizotinib] (partner 1 µM)
Procedure, shortened: as §1

[8] = compound: Cn1cc(-c2cnn3c(N)c(Br)c([C@@H]4CCCNC4)nc23)cn1 + C[C@]1(O)C[C@@H](c2nc(-c3ccc4ccc(-c5ccccc5)nc4c3)c3c(N)nccn32)C1 [Linsitinib] (partner 1 µM)
Procedure, shortened: as §1

[9] = compound: Cn1cc(-c2cnn3c(N)c(Br)c([C@@H]4CCCNC4)nc23)cn1 + Cc1nc(NC(=O)N2CCC[C@H]2C(N)=O)sc1-c1ccnc(C(C)(C)C(F)(F)F)c1 [Alpelisib] (partner 2 µM)
Procedure, shortened: as §1

[10] = compound: Cn1cc(-c2cnn3c(N)c(Br)c([C@@H]4CCCNC4)nc23)cn1 + O=C(CCCCCCC(=O)Nc1ccccc1)NO [Vorinostat] (partner 1 µM)
Procedure, shortened: as §1

[11] = compound: Cn1cc(-c2cnn3c(N)c(Br)c([C@@H]4CCCNC4)nc23)cn1 + O=C(c1cc(Cc2n[nH]c(=O)c3ccccc23)ccc1F)N1CCN(C(=O)C2CC2)CC1 [Olaparib] (partner 8 µM)
Procedure, shortened: as §1

IA-LM
relative viability ([1]; 0.05 µM): 0.917
relative viability ([1]; 0.1581 µM): 0.976
relative viability ([1]; 0.5 µM): 1.05
relative viability ([1]; 1.581 µM): 0.779
relative viability ([1]; 5 µM): 0.541
relative viability ([2]; first compound 0.05 µM): 0.823
relative viability ([2]; first compound 0.1581 µM): 0.886
relative viability ([2]; first compound 0.5 µM): 0.678
relative viability ([2]; first compound 1.581 µM): 0.532
relative viability ([2]; first compound 5 µM): 0.32
relative viability ([3]; first compound 0.05 µM): 0.858
relative viability ([3]; first compound 0.1581 µM): 0.974
relative viability ([3]; first compound 0.5 µM): 0.609
relative viability ([3]; first compound 1.581 µM): 0.412
relative viability ([3]; first compound 5 µM): 0.252
relative viability ([4]; first compound 0.05 µM): 1.19
relative viability ([4]; first compound 0.1581 µM): 1.23
relative viability ([4]; first compound 0.5 µM): 1.06
relative viability ([4]; first compound 1.581 µM): 0.861
relative viability ([4]; first compound 5 µM): 0.54
relative viability ([5]; first compound 0.05 µM): 0.927
relative viability ([5]; first compound 0.1581 µM): 0.624
relative viability ([5]; first compound 0.5 µM): 0.581
relative viability ([5]; first compound 1.581 µM): 0.44
relative viability ([5]; first compound 5 µM): 0.225
relative viability ([6]; first compound 0.05 µM): 0.357
relative viability ([6]; first compound 0.1581 µM): 0.372
relative viability ([6]; first compound 0.5 µM): 0.33
relative viability ([6]; first compound 1.581 µM): 0.206
relative viability ([6]; first compound 5 µM): 0.196
relative viability ([7]; first compound 0.05 µM): 0.944
relative viability ([7]; first compound 0.1581 µM): 1.01
relative viability ([7]; first compound 0.5 µM): 0.886
relative viability ([7]; first compound 1.581 µM): 0.321
relative viability ([7]; first compound 5 µM): 0.271
relative viability ([8]; first compound 0.05 µM): 0.666
relative viability ([8]; first compound 0.1581 µM): 0.867
relative viability ([8]; first compound 0.5 µM): 0.653
relative viability ([8]; first compound 1.581 µM): 0.544
relative viability ([8]; first compound 5 µM): 0.37
relative viability ([9]; first compound 0.05 µM): 0.757
relative viability ([9]; first compound 0.1581 µM): 1.05
relative viability ([9]; first compound 0.5 µM): 0.574
relative viability ([9]; first compound 1.581 µM): 0.591
relative viability ([9]; first compound 5 µM): 0.589
relative viability ([10]; first compound 0.05 µM): 1.11
relative viability ([10]; first compound 0.1581 µM): 1.12
relative viability ([10]; first compound 0.5 µM): 1.11
relative viability ([10]; first compound 1.581 µM): 0.672
relative viability ([10]; first compound 5 µM): 0.64
relative viability ([11]; first compound 0.05 µM): 0.964
relative viability ([11]; first compound 0.1581 µM): 0.932
relative viability ([11]; first compound 0.5 µM): 0.902
relative viability ([11]; first compound 1.581 µM): 0.643
relative viability ([11]; first compound 5 µM): 0.358
